Here are results for seven molecules from article PMC9169360, “Molecular Imaging-Derived Biomarker of Cardiac Nerve Integrity — Introducing High NET Affinity PET Probe ^18F-AF78” (Theranostics, 2022).

Series [1] has as its target T1, norepinephrine transporter (NET) (Oryctolagus cuniculus, UniProt G1TDF9).
T1 construct: from tissue; host or cells: heart of living New Zealand white rabbits (in vivo PET, gamma counting)
Description: PET imaging and cardiac uptake in rabbits with or without DMI blocking. The note with it: DMI 1.5 mg/kg 10 min before tracer, SUV, n = 5. The series is classed as in vivo, New Zealand white rabbits. As for the experimental part:
(§1) Male Wistar rats (n = 4, weighing 250-400 g) and New Zealand white rabbits (n = 5, weighing 3.2-3.6 kg) were used for cardiac uptake studies. Anesthesia was induced and maintained during the experiment by 2% isoflurane. Large animal PET studies were performed on cynomolgus monkeys (n = 4, weighing 3.9-4.2 kg). Induction of anesthesia in NHPs was conducted by intramuscular injection of ketamine (1.5 mg/kg) and xylazine (0.6 mg/kg) to allow the preparation and handling of the animals. After a tracheal cannula was inserted, 1.5% sevoflurane (SEVOFLURANE Inhalation Solution, Pfizer Japan Inc., Tokyo, Japan) vaporized with 100% oxygen was inhaled, and the tidal volume and respiratory rate of the ventilator were monitored and kept in the normal range throughout the imaging sessions with an anesthesia workstation (Apollo®, Drägerwerk AG & Co. KGaA, Lübeck, Germany).
^18F-AF78 (3-4 MBq) and ^123I-MIBG (approximately 2.5 MBq) were injected into rabbits maintained under anesthesia via the marginal ear vein in a single dose. The NET blocker DMI (1.5 mg/kg) was injected 10 min before radiotracer administration in the blocking study. A 10-min dynamic scan was initiated immediately after the radiotracer injection. The animals were euthanized immediately after the scan, and the organs of interest were harvested and measured in a gamma counter to calculate biodistribution. […]

Series [2] concerns the target T2, norepinephrine transporter (NET) (Homo sapiens, UniProt P23975).
T2 construct: cells naturally expressing NET; host or cells: SK-N-SH human neuroblastoma cells
As to the kind of experiment: Competitive cell uptake assay against 3H-norepinephrine in SK-N-SH human neuroblastoma cells. The class given is cell-based. The source says:
SK-N-SH (human neuroblastoma cell line) cells naturally expressing NET were cultivated according to the instructions from the supplier (Sigma-Aldrich Chemie GmbH, Taufkirchen, Germany). […] Cell lysates were collected and measured in a liquid scintillation analyzer.

Details of series [3]: method as in PMID 28322043. The note with it: rhesus macaque monkeys, not before 90 min after radiotracer injection; cited from earlier work.
For series [4], the target named is T3, norepinephrine transporter (NET) (Rattus norvegicus, UniProt Q63380).
T3 construct: from tissue; host or cells: heart of living Wistar rats (in vivo PET, ex vivo tissue counting)
T3 sequence (Q63380 1-617): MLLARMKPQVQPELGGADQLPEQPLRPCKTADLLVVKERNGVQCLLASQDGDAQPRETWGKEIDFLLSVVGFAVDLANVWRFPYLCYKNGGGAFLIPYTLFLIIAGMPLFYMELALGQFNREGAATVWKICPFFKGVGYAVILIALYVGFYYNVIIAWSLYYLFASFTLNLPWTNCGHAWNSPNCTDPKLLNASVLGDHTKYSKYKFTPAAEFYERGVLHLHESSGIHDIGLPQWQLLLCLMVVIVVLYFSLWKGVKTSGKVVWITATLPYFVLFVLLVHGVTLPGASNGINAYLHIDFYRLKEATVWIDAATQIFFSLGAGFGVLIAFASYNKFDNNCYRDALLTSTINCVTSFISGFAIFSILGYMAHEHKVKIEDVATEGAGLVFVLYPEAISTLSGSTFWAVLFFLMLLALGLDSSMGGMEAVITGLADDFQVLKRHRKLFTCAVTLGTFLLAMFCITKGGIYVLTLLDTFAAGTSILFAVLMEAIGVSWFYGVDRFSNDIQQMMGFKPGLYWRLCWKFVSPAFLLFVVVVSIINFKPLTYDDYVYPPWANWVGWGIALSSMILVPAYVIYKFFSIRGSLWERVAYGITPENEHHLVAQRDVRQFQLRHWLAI
Description: PET imaging and biodistribution in rats with or without PhB blocking. The series is classed as in vivo, Wistar rats. As for the experimental part:
as §1
A small-animal PET system (microPET FOCUS 120, Siemens, Erlangen, Germany) was used for the rat studies. […] The organ-to-blood ratios were calculated following weight and decay correction of tissue counts.
PET imaging for rats, rabbits and NHPs was performed from the chest to the upper abdomen, including the heart, lungs, liver and part of the intestines. The reconstructed images were analyzed using AMIDE imaging software (version 1.0.1). […]

Series [5] can be described thus: Dynamic PET imaging and biodistribution of the radiotracer in healthy nonhuman primates. The series is classed as in vivo, cynomolgus monkeys. The note with it: NHP controls. As for the experimental part: as §1
NHPs were maintained under anesthesia during imaging and were studied with a PET scanner (PCA-2000A, Toshiba Medical Systems Corporation, Tochigi, Japan). After a 5-min transmission scan and a bolus intravenous (i.v.) injection of the radiotracer ^18F-AF78 (approximately 20 MBq) via the saphenous vein, a 60-min dynamic PET scan (10 s × 12, 30 s × 6, and 300 s × 11) was initiated. For the blocking study, DMI was injected 10 min before radiotracer administration, after which the PET scan commenced immediately (n = 4). For the DMI chase study, DMI (1 mg/kg, n = 4) was injected 10 min after radiotracer administration, while the PET scan was initiated simultaneously with radiotracer administration. The catecholamine releasing stimulator tyramine (TYR) was also used in a chase protocol, with 50 µg/kg each injection (n = 4) injected intermittently (5 times, 10-min intervals) after radiotracer administration. The radiotracers ^18F-AF78 and ^123I-MIBG were formulated in saline for the animal studies. Control animals received normal saline. The inhibitors PhB, DMI and TYR were first dissolved in a minimum amount of DMSO and diluted with saline for administration with a final concentration of DMSO lower than 10%. The experimental timeline is provided in the supplementary material.
(§2) PET imaging for rats, rabbits and NHPs was performed from the chest to the upper abdomen, including the heart, lungs, liver and part of the intestines. The reconstructed images were analyzed using AMIDE imaging software (version 1.0.1). For kinetic studies in rats and NHPs, the tissue uptake was determined as standardized uptake values (SUVs), from which time-activity curves of different organs, e.g., heart, blood, lung and liver, were generated with transmission computed tomography images for topographic localization.

Series [6] concerns norepinephrine transporter (NET). As to the kind of experiment: PET kinetic studies in nonhuman primates with DMI blocking, DMI chase and tyramine chase. The class given is in vivo, cynomolgus monkeys. The note with it: NHP heart, 60 min. The protocol: as §1
NHPs were maintained under anesthesia during imaging and were studied with a PET scanner (PCA-2000A, Toshiba Medical Systems Corporation, Tochigi, Japan). After a 5-min transmission scan and a bolus intravenous (i.v.) injection of the radiotracer ^18F-AF78 (approximately 20 MBq) via the saphenous vein, a 60-min dynamic PET scan (10 s × 12, 30 s × 6, and 300 s × 11) was initiated. For the blocking study, DMI was injected 10 min before radiotracer administration, after which the PET scan commenced immediately (n = 4). For the DMI chase study, DMI (1 mg/kg, n = 4) was injected 10 min after radiotracer administration, while the PET scan was initiated simultaneously with radiotracer administration. […]
as §2

Where [7] appears, read: SK-N-SH cells, 60 min, 37 °C, mean ± SD, n = 4, read-out: IC50, competitive cell uptake affinity against 3H-NE.

Like-named read-outs stand apart in the source and are kept apart here.

T2 sequence (P23975 whole entry): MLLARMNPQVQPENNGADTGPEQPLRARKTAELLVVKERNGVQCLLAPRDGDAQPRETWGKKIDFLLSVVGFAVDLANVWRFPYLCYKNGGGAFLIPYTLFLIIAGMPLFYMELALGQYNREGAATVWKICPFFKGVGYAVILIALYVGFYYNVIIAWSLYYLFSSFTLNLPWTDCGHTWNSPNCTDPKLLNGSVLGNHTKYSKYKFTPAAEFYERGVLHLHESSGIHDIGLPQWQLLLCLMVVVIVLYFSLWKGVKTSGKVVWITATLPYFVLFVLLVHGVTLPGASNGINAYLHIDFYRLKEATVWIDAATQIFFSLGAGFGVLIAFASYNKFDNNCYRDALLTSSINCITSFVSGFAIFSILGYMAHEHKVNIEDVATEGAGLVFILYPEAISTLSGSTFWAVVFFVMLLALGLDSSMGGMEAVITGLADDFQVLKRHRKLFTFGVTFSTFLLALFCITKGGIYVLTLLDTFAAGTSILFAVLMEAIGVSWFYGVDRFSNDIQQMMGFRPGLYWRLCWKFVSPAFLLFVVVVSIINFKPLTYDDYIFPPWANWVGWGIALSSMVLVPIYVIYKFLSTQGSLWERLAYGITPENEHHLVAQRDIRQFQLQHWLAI
T1 sequence (G1TDF9 1-617): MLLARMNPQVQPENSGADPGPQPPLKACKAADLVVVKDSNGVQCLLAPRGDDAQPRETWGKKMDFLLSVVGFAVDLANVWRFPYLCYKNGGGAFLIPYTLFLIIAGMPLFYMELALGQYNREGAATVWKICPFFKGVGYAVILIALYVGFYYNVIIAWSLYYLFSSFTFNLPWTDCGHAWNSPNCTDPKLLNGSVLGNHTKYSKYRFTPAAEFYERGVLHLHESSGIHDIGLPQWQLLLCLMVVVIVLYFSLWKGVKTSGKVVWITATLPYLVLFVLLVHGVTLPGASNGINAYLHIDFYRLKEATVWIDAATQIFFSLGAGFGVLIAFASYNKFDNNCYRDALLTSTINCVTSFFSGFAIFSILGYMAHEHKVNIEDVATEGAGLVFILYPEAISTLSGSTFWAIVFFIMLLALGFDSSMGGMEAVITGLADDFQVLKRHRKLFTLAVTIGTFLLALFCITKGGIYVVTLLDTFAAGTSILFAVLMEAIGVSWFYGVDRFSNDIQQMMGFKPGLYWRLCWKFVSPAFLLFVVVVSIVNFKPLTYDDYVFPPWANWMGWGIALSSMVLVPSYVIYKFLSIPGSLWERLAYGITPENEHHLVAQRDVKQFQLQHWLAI

In the case of `N=C(N)NCc1cccc(I)c1` [MIBG, metaiodobenzylguanidine, reference compound], the “cardiac uptake in the DMI pretreatment group” value in series [1] was “reduced significantly”. The IC50 – broadly, the concentration needed to halve the response being measured – in series [2] (setting [7]) turned out to be 1750 ± 470 nM.

Turning to `CN[C@@H](C)[C@H](O)c1cccc(O)c1` [HED, metahydroxyephedrine], the half-maximal inhibitory concentration (IC50) in series [2] stood at 390 ± 110 nM.

Molecule `NCCc1cc(O)c(O)cc1F` [6F-DA, 6-fluorodopamine] came in with an IC50 in series [2] of 1200 ± 330 nM.

Regarding `N=C(N)NCCc1ccc(F)c(O)c1` [4F-MHPG, 4-fluoro-3-hydroxyphenethylguanidine], the IC50 in series [2] (setting [7]) worked out at 2780 ± 1220 nM. The heart-to-liver ratio in series [3] is given as 2.2 ± 0.8.

`N=C(N)NCCc1ccc(O)c(F)c1` [3F-PHPG, 3-fluoro-4-hydroxyphenethylguanidine]: the IC50 in series [2] (setting [7]) stood at 780 ± 60 nM. The heart-to-liver ratio in series [3] is reported as 2.5 ± 0.3.

On to `N=C(N)NCCc1ccc(OCCCF)c(F)c1` [AF78, 1-(3-fluoro-4-(3-fluoropropoxy)phenethyl)guanidine], for which the “cardiac uptake upon PhB pretreatment” value in series [4] (PhB 50 mg/kg 10 min before tracer, time-activity curves) was “decreased rapidly”. In addition, the “organ-to-blood ratios, early (10 min) versus late (60 min) phase” value in series [4] (biodistribution study, controls) was “unchanged”. Moreover, the “cardiac uptake in the DMI pretreatment group” value in series [1] is recorded as “reduced significantly”. The concentration for half-maximal inhibition (IC50) in series [2] (setting [7]) was determined as 420 ± 140 nM. Further, in series [2] (ratio of IC50 values, SK-N-SH cells), the “fold higher affinity of AF78 relative to MIBG” value was 4.2 fold. Besides, in series [5] (5 min postinjection), the heart-to-blood pool ratio was 2.03 ± 0.53 and the heart-to-liver ratio came to 0.38 ± 0.29. Further, the heart-to-liver ratio in series [5] (30 min postinjection) turned out to be 0.95 ± 0.20. Further, in series [5] (60 min postinjection), the “absolute SUV in the blood pool” value was 0.72 ± 0.34 SUV, the “absolute SUV in the liver” value is on record as 0.91 ± 0.47 SUV, the heart-to-blood pool ratio amounted to 1.82 ± 0.71 and the heart-to-liver ratio worked out at 1.60 ± 0.38. Further, the “cardiac SUV” value in series [5] (heart, 5 min postinjection) is 1.74 ± 0.24 SUV. In series [5] (heart, 60 min postinjection), the “cardiac uptake, mean SUV” value stood at 1.46 ± 0.18 SUV. Besides, the “cardiac mean SUV after DMI chase” value in series [6] (DMI 1 mg/kg 10 min after tracer) amounted to 1.40 ± 0.07 SUV. Also, the “cardiac mean SUV after DMI blocking” value in series [6] (DMI injected 10 min before tracer) is 0.45 ± 0.05 SUV. Further, the “cardiac mean SUV after intermittent TYR chase” value in series [6] (tyramine 50 µg/kg 5 times at 10-min intervals) is recorded as 0.92 ± 0.20 SUV.

On to `N=C(N)NCc1ccc(OCCCF)c(Br)c1` [FBBG, flubrobenguane], for which the IC50 in series [2] (setting [7]) is 2280 ± 1050 nM.
